Results published in patent US7192953B2, “Antibacterial agents” (Vernalis (Oxford) Limited, priority 2002, dated 2007).
Converted amounts (≈) assume the structure as drawn.

How the values were obtained:
Format in all cases: cell-based
M. catarrhalis = assay: MIC by agar plate dilution against clinical isolates of M. catarrhalis; settings: 3 strains of M. catarrhalis (clinical isolates), 18 to 24 hr, 35° C; for MIC: Moraxella catarrhalis, read-out: MIC or MIC range, M. catarrhalis
Experimental: (§1) Minimal Inhibitory concentrations (MIC) of inhibitors against clinical isolates of S. pneumoniae, H. influenzae and M. catarrhalis obtained from the Public Health and Clinical Microbiology Laboratory, Addenbrooke's Hospital, Hills Road, Cambridge CB2 2QW, UK, were determined by a standard agar plate dilution method following recommended in British Society for Antimicrobial Chemotherapy Working Party. 1991. “A guide to sensitivity testing British Society for Antimicrobial Chemotherapy, London, United Kingdom”. Briefly Iso-Sensitest agar (pH 7.2: Oxoid, United Kingdom) was employed supplemented with 5% horse blood (Oxoid) and 20 μg of NAD (Sigma) per ml to support growth of fastidious bacteria. The inoculum used was approximately 10^4 colony forming units of each isolate contained in a volume of 1 μl. Plates were incubated 18 to 24 hr in air, or for fastidious bacteria an atmosphere enriched with 4–6% carbon dioxide at 35° C. The MIC was determined as the lowest concentration of an antimicrobial tested that inhibited growth of the inoculum, disregarding a single persisting colony or faint haze caused by the inoculation.
(§2) The compounds of the Examples were are antibacterially active in the above assays, The following table states the MICs or MIC ranges of the tested compounds against 6 strains of S. pneumoniae, 4 strains of H. influenzae and 3 strains of M. catarrhalis.

S. pneumoniae = assay: MIC by agar plate dilution against clinical isolates of S. pneumoniae; settings: 6 strains of S. pneumoniae (clinical isolates), 18 to 24 hr, 35° C; for MIC: Streptococcus pneumoniae, read-out: MIC or MIC range, S. pneumoniae
Experimental: as §1, §2

H. influenzae = assay: MIC by agar plate dilution against clinical isolates of H. influenzae; settings: 4 strains of H. influenzae (clinical isolates), 18 to 24 hr, 35° C; for MIC: Haemophilus influenzae, read-out: MIC or MIC range, H. Influenzae
Experimental: as §1, §2

Compound	MIC (M. catarrhalis)	MIC (S. pneumoniae)	MIC (H. influenzae)	MIC or MIC range, M. catarrhalis (M. catarrhalis)	MIC or MIC range, S. pneumoniae (S. pneumoniae)	MIC or MIC range, H. Influenzae (H. influenzae)
O=CN(O)C[C@@H](CC1CCCC1)C(=O)N1CCCCN1C(=O)c1ccc(F)cc1 [Example 10, N-{(2R)-Cyclopentylmethyl-3-[2-(4-fluorobenzoyl)-tetrahydropyridazin-1-yl]-3-oxo-propyl}-N-hydroxyformamide]	0.5 µg/mL (≈ 1.23 µM)	0.5 to 4 µg/mL (≈ 1.23 to 9.87 µM)	0.5 to 2 µg/mL (≈ 1.23 to 4.93 µM)	–	–	–
COCC(=O)N1CCCCN1C(=O)[C@H](CC1CCCC1)CN(O)C=O [Example 2, N-{(2R)-Cyclopentylmethyl-3-[2-(2-methoxyacetyl)tetrahydropyridazin-1-yl]-3-oxo-propyl}-N-hydroxyformamide]	0.25 µg/mL (≈ 0.703 µM)	1 to 8 µg/mL (≈ 2.81 to 22.5 µM)	0.25 to 8 µg/mL (≈ 0.703 to 22.5 µM)	–	–	–
COc1ccc(C(=O)N2CCCN2C(=O)[C@H](CC2CCCC2)CN(O)C=O)cc1 [Example 33, N-{(2R)-Cyclopentylmethyl-3-[2-(4-methoxybenzoyl)-pyrazolidin-1-yl]-3-oxo-propyl}-N-hydroxyformamide]	0.06 µg/mL (≈ 0.149 µM)	4 to 16 µg/mL (≈ 9.91 to 39.7 µM)	16 to 32 µg/mL (≈ 39.7 to 79.3 µM)	–	–	–
O=CN(O)C[C@@H](CC1CCCC1)C(=O)N1CCCN1C(=O)c1cccnc1 [Example 36, N-{(2R)-Cyclopentylmethyl-3-[2-(pyridine-3-Carbonyl)-pyrazolidin-1-yl]-3-oxo-propyl}N-hydroxyformamide]	0.125 µg/mL (≈ 0.334 µM)	8 µg/mL (≈ 21.4 µM)	2 to 32 µg/mL (≈ 5.34 to 85.5 µM)	–	–	–
O=CN(O)C[C@@H](CC1CCCC1)C(=O)N1CCCCN1C(=O)Nc1ccccc1 [Example 14, 2-[(2R)-Cyclopentylmethyl-3-(formylhydroxyamino)-propionyl]-tetrahydropyridazine-1-Carboxylic acid phenylamide]	< 0.125 µg/mL	2 to 4 µg/mL (≈ 4.97 to 9.94 µM)	0.125 to 4 µg/mL (≈ 0.311 to 9.94 µM)	–	–	–
O=CN(O)C[C@@H](CC1CCCC1)C(=O)N1CCCN1C(=O)Nc1ccc(F)cc1 [Example 40]	< 0.125 µg/mL	8 to 16 µg/mL (≈ 19.7 to 39.4 µM)	0.125 to 2 µg/mL (≈ 0.308 to 4.92 µM)	–	–	–
CC(C)(C)OC(=O)N1CCCN1C(=O)[C@H](CC1CCCC1)CN(O)C=O [Example 23, 2-[(2R)-Cyclopentylmethyl-3-(formylhydroxyamino)-propionyl]-pyrazolidine-1-Carboxylic acid tert-butyl ester]	–	–	–	<0.125 µg/mL	8 to 16 µg/mL	0.5 to 2 µg/mL
CC(C)(C)OC(=O)N1CCCCN1C(=O)[C@H](CC1CCCC1)CN(O)C=O [Example 24, 2-[(2R)-Cyclopentylmethyl-3-(formylhydroxyamino)-propionyl]-tetrahydropyridazine-1-Carboxylic acid tert-butyl ester]	< 0.125 µg/mL	4 to 16 µg/mL (≈ 10.4 to 41.7 µM)	1 to 4 µg/mL (≈ 2.61 to 10.4 µM)	–	–	–
O=CN(O)C[C@@H](CC1CCCC1)C(=O)N1CCCN1C(=O)c1ccccc1 [Example 27, N-{(2R)-Cyclopentylmethyl-3-[2-benzoyl-pyrazolidin-1-yl]-3-oxo-propyl}-N-hydroxyformamide]	0.06 µg/mL (≈ 0.161 µM)	16 µg/mL (≈ 42.8 µM)	2 to 16 µg/mL (≈ 5.36 to 42.8 µM)	–	–	–
O=CN(O)C[C@@H](CC1CCCC1)C(=O)N1CCCCN1C(=O)Nc1ccc(F)cc1 [Example 16, 2-[(2R)-Cyclopentylmethyl-3-(formylhydroxyamino)propionyl]-tetrahydropyridazine-1-Carboxylic acid (4-fluorophenyl)amide]	< 0.125 µg/mL	4 to 8 µg/mL (≈ 9.51 to 19 µM)	0.125 to 4 µg/mL (≈ 0.297 to 9.51 µM)	–	–	–
(2R)-Cyclopentylmethyl-3-[2-(furan-2-Carbonyl)-pyrazolidin-1-yl]-3-oxo-propyl}formamide [Example 25]	–	–	–	<0.125 µg/mL	4 to 8 µg/mL	<0.125 to 1 µg/mL
COc1cccc(NC(=O)N2CCCN2C(=O)[C@H](CC2CCCC2)CN(O)C=O)c1 [Example 41, 2-[(2R)-Cyclopentylmethyl-3-(formylhydroxyamino)-propionyl]-pyrazolidine-1-Carboxylic acid (3-methoxyphenyl)amide]	< 0.125 µg/mL	4 to 8 µg/mL (≈ 9.56 to 19.1 µM)	0.125 to 2 µg/mL (≈ 0.299 to 4.78 µM)	–	–	–
O=CN(O)C[C@@H](CC1CCCC1)C(=O)N1CCCCN1C(=O)Nc1ccc(F)cc1F [Example 17, 2-[(2R)-Cyclopentylmethyl-3-(formylhydroxyamino)-propionyl]-tetrahydropyridazine-1-Carboxylic acid (2,4-bis(fluoro)phenyl)amide]	< 0.125 µg/mL	4 to 8 µg/mL (≈ 9.12 to 18.2 µM)	0.125 µg/mL (≈ 0.285 µM)	–	–	–
CN(C(=O)N1CCCCN1C(=O)[C@H](CC1CCCC1)CN(O)C=O)c1ccccc1 [Example 21, 2-[(2R)-Cyclopentylmethyl-3-(formylhydroxyamino)-propionyl]-tetrahydropyridazine-1-Carboxylic acid methylphenylamide]	–	–	–	0.125 µg/mL (≈ 0.3 µM)	1 to 4 µg/mL	4 to 16 µg/mL
O=CN(O)C[C@@H](CC1CCCC1)C(=O)N1CCCCN1C(=O)Nc1ccc2c(c1)OCCO2 [Example 19, 2-[(2R)-Cyclopentylmethyl-3-(formylhydroxyamino)-propionyl]-tetrahydropyridazine-1-Carboxylic acid (2,3,4a,8a-tetrahydrobenzo[1,4]dioxin-6-yl)amide]	< 0.125 µg/mL	2 to 4 µg/mL (≈ 4.34 to 8.69 µM)	0.125 to 4 µg/mL (≈ 0.271 to 8.69 µM)	–	–	–
O=CN(O)C[C@@H](CC1CCCC1)C(=O)N1CCCN1C(=O)Nc1ccccc1 [Example 39, 2-[(2R)-Cyclopentylmethyl-3-(formylhydroxyamino)-propionyl]-pyrazolidine-1-Carboxylic acid phenylamide]	< 0.125 µg/mL	4 to 16 µg/mL (≈ 10.3 to 41.2 µM)	0.125 to 2 µg/mL (≈ 0.322 to 5.15 µM)	–	–	–
O=CN(O)C[C@@H](CC1CCCC1)C(=O)N1CCCCN1C(=O)C1CCCCC1 [Example 6, N-{(2R)-Cyclopentylmethyl-3-[2-Cyclohexanecarbonyl-tetrahydropyridazin-1-yl]-3-oxo-propyl}-N-hydroxyformamide]	0.06 µg/mL (≈ 0.152 µM)	0.5 to 2 µg/mL (≈ 1.27 to 5.08 µM)	4 to 8 µg/mL (≈ 10.2 to 20.3 µM)	–	–	–
O=CN(O)C[C@@H](CC1CCCC1)C(=O)N1CCCCN1C(=O)c1ccccc1 [Example 3, N-{(2R)-Cyclopentylmethyl-3-[2-benzoyl-tetrahydropyridazin-1-yl]-3-oxo-propyl}-N-hydroxyformamide]	0.125 µg/mL (≈ 0.323 µM)	0.5 to 2 µg/mL (≈ 1.29 to 5.16 µM)	1 to 4 µg/mL (≈ 2.58 to 10.3 µM)	–	–	–
O=CN(O)C[C@@H](CC1CCCC1)C(=O)N1CCCN1C(=O)c1ccc(C(F)(F)F)cc1 [Example 28, N-{(2R)-Cyclopentylmethyl-3-[2-(4-trifluoromethylbenzoyl)-pyrazolidin-1-yl]-3-oxo-propyl}-N-hydroxyformamide]	0.06 µg/mL (≈ 0.136 µM)	0.5 to 4 µg/mL (≈ 1.13 to 9.06 µM)	16 µg/mL (≈ 36.2 µM)	–	–	–
O=CN(O)C[C@@H](CC1CCCC1)C(=O)N1CCCCN1C(=O)c1ccoc1 [Example 9, N-{(2R)-Cyclopentylmethyl-3-[2-(furan-3-Carbonyl)-tetrahydropyridazin-1-yl]-3-oxo-propyl}-N-hydroxyformamide]	< 0.93 µg/mL	0.5 to 2 µg/mL (≈ 1.32 to 5.3 µM)	0.125 to 8 µg/mL (≈ 0.331 to 21.2 µM)	–	–	–
